Source: paper PMC6199309, “A therapeutic approach to pantothenate kinase associated neurodegeneration” (Nature Communications, 2018)
In brackets after ≈: the same amount, converted by molar mass.

What was measured:
HIPK3 = target: T1, HIPK3 (Homo sapiens, UniProt Q9H422); assay: KINOMEscan; format: binding; details: read-out: %Ctrl @ 10000nM
T1 construct: purchased DiscoverX KINOMEscan

IGF1R = target: T2, IGF1R (Homo sapiens, UniProt P08069); assay: KINOMEscan; format: binding; details: read-out: %Ctrl @ 10000nM
T2 construct: purchased DiscoverX KINOMEscan

NLK = target: T3, NLK (Homo sapiens, UniProt Q9UBE8); assay: KINOMEscan; format: binding; details: read-out: %Ctrl @ 10000nM
T3 construct: purchased DiscoverX KINOMEscan
T3 sequence (Q9UBE8 whole entry): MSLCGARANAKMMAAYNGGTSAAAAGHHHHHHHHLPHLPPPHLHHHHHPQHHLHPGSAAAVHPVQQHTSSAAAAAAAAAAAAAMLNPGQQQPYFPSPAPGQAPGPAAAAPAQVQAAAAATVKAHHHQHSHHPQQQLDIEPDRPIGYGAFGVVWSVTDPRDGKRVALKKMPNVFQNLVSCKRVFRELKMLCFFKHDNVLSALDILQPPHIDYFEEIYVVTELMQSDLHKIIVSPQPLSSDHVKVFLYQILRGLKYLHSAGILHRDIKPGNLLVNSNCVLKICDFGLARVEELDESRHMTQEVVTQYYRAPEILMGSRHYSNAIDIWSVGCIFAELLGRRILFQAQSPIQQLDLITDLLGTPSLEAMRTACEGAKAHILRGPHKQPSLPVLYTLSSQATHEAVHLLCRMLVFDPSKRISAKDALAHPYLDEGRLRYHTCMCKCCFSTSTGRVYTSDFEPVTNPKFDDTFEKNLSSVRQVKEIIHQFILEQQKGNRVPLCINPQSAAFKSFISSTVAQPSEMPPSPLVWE

ERN1 = target: T4, ERN1 (Homo sapiens, UniProt O75460); assay: KINOMEscan; format: binding; details: read-out: %Ctrl @ 10000nM
T4 construct: purchased DiscoverX KINOMEscan

IKK-epsilon = target: T5, IKK-epsilon (Homo sapiens, UniProt Q14164); assay: KINOMEscan; format: binding; details: read-out: %Ctrl @ 10000nM
T5 construct: purchased DiscoverX KINOMEscan

CSNK1A1L = target: T6, CSNK1A1L (Homo sapiens, UniProt Q8N752); assay: KINOMEscan; format: binding; details: read-out: %Ctrl @ 10000nM
T6 construct: purchased DiscoverX KINOMEscan

ERK4 = target: T7, ERK4 (Homo sapiens, UniProt P31152); assay: KINOMEscan; format: binding; details: read-out: %Ctrl @ 10000nM
T7 construct: purchased DiscoverX KINOMEscan

CSNK2A2 = target: T8, CSNK2A2 (Homo sapiens, UniProt P19784); assay: KINOMEscan; format: binding; details: read-out: %Ctrl @ 10000nM
T8 construct: purchased DiscoverX KINOMEscan
T8 sequence (P19784 whole entry): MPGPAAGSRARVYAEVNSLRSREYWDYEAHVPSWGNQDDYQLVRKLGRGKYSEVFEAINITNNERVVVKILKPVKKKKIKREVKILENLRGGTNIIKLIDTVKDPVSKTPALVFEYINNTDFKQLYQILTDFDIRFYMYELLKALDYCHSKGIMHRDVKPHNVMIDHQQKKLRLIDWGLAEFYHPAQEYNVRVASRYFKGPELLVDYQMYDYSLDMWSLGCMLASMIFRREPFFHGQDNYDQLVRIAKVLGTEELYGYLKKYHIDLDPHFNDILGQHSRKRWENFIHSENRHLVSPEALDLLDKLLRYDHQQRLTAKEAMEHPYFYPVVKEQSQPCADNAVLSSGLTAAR

SLK = target: T9, SLK (Homo sapiens, UniProt Q9H2G2); assay: KINOMEscan; format: binding; details: read-out: %Ctrl @ 10000nM
T9 construct: purchased DiscoverX KINOMEscan
T9 sequence (Q9H2G2 whole entry): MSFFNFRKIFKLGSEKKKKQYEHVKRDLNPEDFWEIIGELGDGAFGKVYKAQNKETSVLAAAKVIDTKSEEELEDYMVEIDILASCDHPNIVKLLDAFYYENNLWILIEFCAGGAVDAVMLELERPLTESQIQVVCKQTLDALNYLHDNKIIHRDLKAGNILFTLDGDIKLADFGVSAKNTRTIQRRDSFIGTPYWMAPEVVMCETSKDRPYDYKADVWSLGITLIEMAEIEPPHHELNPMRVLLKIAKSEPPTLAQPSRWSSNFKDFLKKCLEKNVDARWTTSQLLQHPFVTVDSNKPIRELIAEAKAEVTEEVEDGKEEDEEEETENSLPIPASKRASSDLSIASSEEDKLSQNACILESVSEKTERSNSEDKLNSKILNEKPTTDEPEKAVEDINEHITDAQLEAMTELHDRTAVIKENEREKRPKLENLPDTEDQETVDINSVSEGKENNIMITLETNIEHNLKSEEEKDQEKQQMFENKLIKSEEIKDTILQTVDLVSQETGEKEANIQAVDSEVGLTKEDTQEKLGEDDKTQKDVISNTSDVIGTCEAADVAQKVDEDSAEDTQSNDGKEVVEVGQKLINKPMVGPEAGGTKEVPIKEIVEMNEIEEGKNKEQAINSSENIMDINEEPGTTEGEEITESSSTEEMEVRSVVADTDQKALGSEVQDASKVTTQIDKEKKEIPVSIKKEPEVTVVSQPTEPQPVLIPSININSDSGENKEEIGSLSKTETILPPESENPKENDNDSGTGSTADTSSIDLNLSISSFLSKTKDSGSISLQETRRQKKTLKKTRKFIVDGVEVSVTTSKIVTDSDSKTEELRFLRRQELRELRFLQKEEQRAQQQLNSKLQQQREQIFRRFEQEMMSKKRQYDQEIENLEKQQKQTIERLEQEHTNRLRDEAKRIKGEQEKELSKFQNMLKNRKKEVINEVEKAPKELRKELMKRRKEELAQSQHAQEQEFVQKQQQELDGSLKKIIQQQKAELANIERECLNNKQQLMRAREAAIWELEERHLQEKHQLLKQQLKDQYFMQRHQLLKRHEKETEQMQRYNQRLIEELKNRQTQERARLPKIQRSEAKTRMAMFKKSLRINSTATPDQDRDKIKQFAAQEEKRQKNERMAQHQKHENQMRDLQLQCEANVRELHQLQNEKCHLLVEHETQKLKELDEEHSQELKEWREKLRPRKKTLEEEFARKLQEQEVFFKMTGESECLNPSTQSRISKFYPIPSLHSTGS

PRKD3 = target: T10, PRKD3 (Homo sapiens, UniProt O94806); assay: KINOMEscan; format: binding; details: read-out: %Ctrl @ 10000nM
T10 construct: purchased DiscoverX KINOMEscan

DDR2 = target: T11, DDR2 (Homo sapiens, UniProt Q16832); assay: KINOMEscan; format: binding; details: read-out: %Ctrl @ 10000nM
T11 construct: purchased DiscoverX KINOMEscan

AXL = target: T12, AXL (Homo sapiens, UniProt P30530); assay: KINOMEscan; format: binding; details: read-out: %Ctrl @ 10000nM
T12 construct: purchased DiscoverX KINOMEscan
T12 sequence (P30530 26-894): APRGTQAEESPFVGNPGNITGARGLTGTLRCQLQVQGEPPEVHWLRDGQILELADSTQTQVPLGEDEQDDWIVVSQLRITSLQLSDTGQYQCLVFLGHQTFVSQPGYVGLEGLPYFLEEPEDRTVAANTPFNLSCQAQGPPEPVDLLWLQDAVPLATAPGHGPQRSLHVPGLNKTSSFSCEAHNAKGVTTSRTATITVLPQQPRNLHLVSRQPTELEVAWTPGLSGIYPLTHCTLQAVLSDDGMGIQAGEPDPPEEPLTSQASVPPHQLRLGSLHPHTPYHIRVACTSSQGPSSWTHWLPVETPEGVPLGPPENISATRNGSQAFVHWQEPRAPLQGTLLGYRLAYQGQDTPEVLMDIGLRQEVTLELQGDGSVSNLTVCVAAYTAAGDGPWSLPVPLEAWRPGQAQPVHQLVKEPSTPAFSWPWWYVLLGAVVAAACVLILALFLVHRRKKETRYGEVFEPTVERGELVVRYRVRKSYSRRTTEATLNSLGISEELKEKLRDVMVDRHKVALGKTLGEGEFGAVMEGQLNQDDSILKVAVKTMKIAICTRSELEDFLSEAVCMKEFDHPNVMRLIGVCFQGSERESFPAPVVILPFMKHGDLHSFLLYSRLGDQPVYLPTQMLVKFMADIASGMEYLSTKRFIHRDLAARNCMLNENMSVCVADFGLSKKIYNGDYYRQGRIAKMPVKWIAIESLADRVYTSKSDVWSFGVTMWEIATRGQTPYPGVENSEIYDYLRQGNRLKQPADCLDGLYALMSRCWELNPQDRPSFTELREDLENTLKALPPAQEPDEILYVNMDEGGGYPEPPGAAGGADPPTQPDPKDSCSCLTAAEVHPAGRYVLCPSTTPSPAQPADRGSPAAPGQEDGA

[1] = target: T13, RSK2(Kin.Dom.1-N-terminal) (Homo sapiens, UniProt P51812); assay: KINOMEscan; format: binding; details: read-out: %Ctrl @ 10000nM
T13 construct: RSK2(Kin.Dom.1-N-terminal); purchased DiscoverX KINOMEscan

FLT4 = target: T14, FLT4 (Homo sapiens, UniProt P35916); assay: KINOMEscan; format: binding; details: read-out: %Ctrl @ 10000nM
T14 construct: purchased DiscoverX KINOMEscan

FLT3 = target: T15, FLT3 (Homo sapiens, UniProt P36888); assay: KINOMEscan; format: binding; details: read-out: %Ctrl @ 10000nM
T15 construct: purchased DiscoverX KINOMEscan

PIK3CA(M1043I) = target: T16, PIK3CA(M1043I) (Homo sapiens, UniProt P42336, M1043I); assay: KINOMEscan; format: binding; details: read-out: %Ctrl @ 10000nM
T16 construct: purchased DiscoverX KINOMEscan
T16 sequence (P42336 whole entry M1043I): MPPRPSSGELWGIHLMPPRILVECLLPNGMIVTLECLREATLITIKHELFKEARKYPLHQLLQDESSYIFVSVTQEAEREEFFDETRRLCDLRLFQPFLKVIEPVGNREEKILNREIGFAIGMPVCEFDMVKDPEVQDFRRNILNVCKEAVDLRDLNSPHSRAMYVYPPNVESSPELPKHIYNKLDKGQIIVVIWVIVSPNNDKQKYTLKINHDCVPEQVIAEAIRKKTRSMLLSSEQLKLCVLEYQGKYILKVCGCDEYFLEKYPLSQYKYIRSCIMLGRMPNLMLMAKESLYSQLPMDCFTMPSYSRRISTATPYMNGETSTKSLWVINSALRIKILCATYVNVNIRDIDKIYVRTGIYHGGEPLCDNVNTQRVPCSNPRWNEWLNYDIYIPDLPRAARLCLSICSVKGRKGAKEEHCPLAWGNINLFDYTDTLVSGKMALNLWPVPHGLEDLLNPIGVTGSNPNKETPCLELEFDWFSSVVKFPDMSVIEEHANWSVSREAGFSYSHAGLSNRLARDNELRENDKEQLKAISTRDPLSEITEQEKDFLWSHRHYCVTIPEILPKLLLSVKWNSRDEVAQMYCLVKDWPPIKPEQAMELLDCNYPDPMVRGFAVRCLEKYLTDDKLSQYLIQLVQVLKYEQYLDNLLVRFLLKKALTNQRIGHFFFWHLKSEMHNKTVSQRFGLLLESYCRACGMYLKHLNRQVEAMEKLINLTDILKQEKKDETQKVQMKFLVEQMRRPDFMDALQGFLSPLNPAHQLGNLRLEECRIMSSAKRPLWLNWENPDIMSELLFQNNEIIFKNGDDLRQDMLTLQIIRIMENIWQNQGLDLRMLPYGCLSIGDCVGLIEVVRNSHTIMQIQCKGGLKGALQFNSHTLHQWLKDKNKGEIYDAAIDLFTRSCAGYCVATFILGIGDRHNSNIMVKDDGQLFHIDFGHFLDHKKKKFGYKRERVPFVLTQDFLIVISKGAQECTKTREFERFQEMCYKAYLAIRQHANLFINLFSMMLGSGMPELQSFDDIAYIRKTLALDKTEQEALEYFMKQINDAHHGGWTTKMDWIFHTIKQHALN

PKN2 = target: T17, PKN2 (Homo sapiens, UniProt Q16513); assay: KINOMEscan; format: binding; details: read-out: %Ctrl @ 10000nM
T17 construct: purchased DiscoverX KINOMEscan

CAMK1B = target: T18, CAMK1B (Homo sapiens, UniProt Q6P2M8); assay: KINOMEscan; format: binding; details: read-out: %Ctrl @ 10000nM
T18 construct: purchased DiscoverX KINOMEscan

EGFR(G719C) = target: T19, EGFR(G719C) (Homo sapiens, UniProt P00533, G719C); assay: KINOMEscan; format: binding; details: read-out: %Ctrl @ 10000nM
T19 construct: purchased DiscoverX KINOMEscan

NEK5 = target: T20, NEK5 (Homo sapiens, UniProt Q6P3R8); assay: KINOMEscan; format: binding; details: read-out: %Ctrl @ 10000nM
T20 construct: purchased DiscoverX KINOMEscan

LCK = target: T21, LCK (Homo sapiens, UniProt P06239); assay: KINOMEscan; format: binding; details: read-out: %Ctrl @ 10000nM
T21 construct: purchased DiscoverX KINOMEscan

STK35 = target: T22, STK35 (Homo sapiens, UniProt Q8TDR2); assay: KINOMEscan; format: binding; details: read-out: %Ctrl @ 10000nM
T22 construct: DNA tag for qPCR (T7 phage fusion or DNA label); purchased DiscoverX KdELECT; host or cells: E. coli BL21-derived (T7 phage) or HEK-293

GSK3A = target: T23, GSK3A (Homo sapiens, UniProt P49840); assay: KINOMEscan; format: binding; details: read-out: %Ctrl @ 10000nM
T23 construct: purchased DiscoverX KINOMEscan

ERK8 = target: T24, ERK8 (Homo sapiens, UniProt Q8TD08); assay: KINOMEscan; format: binding; details: read-out: %Ctrl @ 10000nM
T24 construct: purchased DiscoverX KINOMEscan
T24 sequence (Q8TD08 whole entry): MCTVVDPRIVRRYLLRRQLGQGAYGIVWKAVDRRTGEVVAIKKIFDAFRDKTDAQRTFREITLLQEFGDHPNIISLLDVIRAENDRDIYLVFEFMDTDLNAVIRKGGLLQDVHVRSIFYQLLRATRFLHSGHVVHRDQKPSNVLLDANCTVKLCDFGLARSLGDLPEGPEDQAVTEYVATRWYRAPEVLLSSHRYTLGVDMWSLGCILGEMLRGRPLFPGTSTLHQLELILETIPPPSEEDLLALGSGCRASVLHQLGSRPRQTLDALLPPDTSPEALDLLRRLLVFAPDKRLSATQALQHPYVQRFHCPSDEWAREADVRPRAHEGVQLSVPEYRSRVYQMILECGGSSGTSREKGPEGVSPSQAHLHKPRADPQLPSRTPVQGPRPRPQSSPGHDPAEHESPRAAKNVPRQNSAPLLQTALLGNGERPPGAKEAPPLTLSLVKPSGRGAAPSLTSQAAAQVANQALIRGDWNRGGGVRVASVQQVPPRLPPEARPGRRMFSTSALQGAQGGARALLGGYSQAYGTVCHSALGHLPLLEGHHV

[2] = PZ-2891 levels in plasma, liver and brain tissue; format: in vivo, mouse; details: 225 ppm PZ-2891 in diet, 4 weeks
Experimental: Plasma (20 μl) was added to 100 μl acetonitrile containing 0.6 μM warfarin to a final concentration of 0.5 μM. The samples were incubated on ice for 30 min. Samples were spun at 3500×g for 10 min to pellet debris, and the supernatant was transferred to a glass vial. […] Tissue was homogenized in 2 ml of 80% methanol containing 0.1 μM warfarin, and incubated at −80 °C for 4 h. Samples were spun at 3500×g for 10 min to pellet debris, supernatant was transferred to a glass tube and dried down using a Savant SPD1010 Speed-Vac (Thermo Scientific) overnight. Samples were resuspended in 400 μl of 80% acetonitrile to a final concentration of 0.5 μM and transferred to a glass vial.
Samples (5 μl) were injected onto an XSelect® HSS C18, 2.5 μm, 3.0 × 150 mm column (Waters) using a flow rate of 0.25 ml/min. Solvent A was 0.1% formic acid in water, and Solvent B was acetonitrile + 0.1% formic acid. The HPLC program was the following: starting solvent mixture of 50% B, 0–0.5 min isocratic with 50% B; 0.5–1.5 min linear gradient to 95% B; 1.5–20 min isocratic with 95% B; 20–21 min linear gradient to 50% B; 21–25 min isocratic with 50% B. The QTrap 4500 was operated in the positive mode, and the ion source parameters were: ion spray voltage, 5500 V; curtain gas, 30 psi; temperature, 450 °C; collision gas, medium; ion source gas 1, 30 psi; and ion source gas 2, 40 psi. […]
Supplementary Fig. 11. […]. […]

CSNK1G2 = target: T25, CSNK1G2 (Homo sapiens, UniProt P78368); assay: KINOMEscan; format: binding; details: read-out: %Ctrl @ 10000nM
T25 construct: purchased DiscoverX KINOMEscan

[3] = target: T26, RPS6KA5(Kin.Dom.1-N-terminal) (Homo sapiens, UniProt O75582); assay: KINOMEscan; format: binding; details: read-out: %Ctrl @ 10000nM
T26 construct: RPS6KA5(Kin.Dom.1-N-terminal); purchased DiscoverX KINOMEscan
T26 sequence (O75582 1-387 limits assumed): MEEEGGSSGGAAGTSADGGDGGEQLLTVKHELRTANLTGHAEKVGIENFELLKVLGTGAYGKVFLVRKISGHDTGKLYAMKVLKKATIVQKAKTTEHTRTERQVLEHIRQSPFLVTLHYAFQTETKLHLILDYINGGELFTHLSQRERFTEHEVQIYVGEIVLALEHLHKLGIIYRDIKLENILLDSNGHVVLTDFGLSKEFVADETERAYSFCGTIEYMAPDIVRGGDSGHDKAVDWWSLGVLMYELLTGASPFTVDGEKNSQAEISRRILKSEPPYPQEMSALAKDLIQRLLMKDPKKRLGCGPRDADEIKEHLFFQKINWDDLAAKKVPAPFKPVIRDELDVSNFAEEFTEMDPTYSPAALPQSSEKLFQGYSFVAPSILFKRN

PRKCQ = target: T27, PRKCQ (Homo sapiens, UniProt Q04759); assay: KINOMEscan; format: binding; details: read-out: %Ctrl @ 10000nM
T27 construct: purchased DiscoverX KINOMEscan

FGFR3(G697C) = target: T28, FGFR3(G697C) (Homo sapiens, UniProt P22607, G697C); assay: KINOMEscan; format: binding; details: read-out: %Ctrl @ 10000nM
T28 construct: purchased DiscoverX KINOMEscan

ACVR2A = target: T29, ACVR2A (Homo sapiens, UniProt P27037); assay: KINOMEscan; format: binding; details: read-out: %Ctrl @ 10000nM
T29 construct: purchased DiscoverX KINOMEscan

HASPIN = target: T30, HASPIN (Homo sapiens, UniProt Q8TF76); assay: KINOMEscan; format: binding; details: read-out: %Ctrl @ 10000nM
T30 construct: purchased DiscoverX KINOMEscan

In the case of CC(C)c1ccc(CC(=O)N2CCN(c3ccc(C#N)nn3)CC2)cc1 [PZ-2891, 6-(4-(2-(4-isopropylphenyl)acetyl)piperazin-1-yl)pyridazine-3-carbonitrile], the remaining binding at 10 µM (HIPK3) is reported as 81%, the remaining binding at 10 µM (IGF1R) is reported as 91% and the remaining binding at 10 µM (NLK) is reported as 94%. It also gave a remaining binding at 10 µM (ERN1) of 82%, a remaining binding at 10 µM (IKK-epsilon) of 89% and a remaining binding at 10 µM (CSNK1A1L) of 100%. It also gave a remaining binding at 10 µM (ERK4) of 97%, a remaining binding at 10 µM (CSNK2A2) of 88% and a remaining binding at 10 µM (SLK) of 93%. It also gave a remaining binding at 10 µM (PRKD3) of 66%, a remaining binding at 10 µM (DDR2) of 85% and a remaining binding at 10 µM (AXL) of 73%. For the same molecule, the remaining binding at 10 µM [1] was 80%, the remaining binding at 10 µM (FLT4) was 91% and the remaining binding at 10 µM (FLT3) was 57%. The remaining binding at 10 µM (PIK3CA(M1043I)) was 74%, the remaining binding at 10 µM (PKN2) was 94% and the remaining binding at 10 µM (CAMK1B) was 100%. The remaining binding at 10 µM (EGFR(G719C)) was 100%, the remaining binding at 10 µM (NEK5) was 100% and the remaining binding at 10 µM (LCK) was 98%. It also gave a solubility (Solubility at pH 7.4) of 23 µM (≈ 8.04 µg/mL), a remaining binding at 10 µM (STK35) of 0.2% and a remaining binding at 10 µM (GSK3A) of 83%. For the same molecule, the remaining binding at 10 µM (ERK8) was 81%, the “PZ-2891 levels in tissues” value [2] was “presence of drug in liver and brain” and the remaining binding at 10 µM (CSNK1G2) was 62%. The remaining binding at 10 µM [3] was 93%, the remaining binding at 10 µM (PRKCQ) was 100% and the remaining binding at 10 µM (FGFR3(G697C)) was 99%. For the same molecule, the remaining binding at 10 µM (ACVR2A) was 100% and the remaining binding at 10 µM (HASPIN) was 85%.
